Data published in patent publication EP0201359A2, “Use of phthalide isoquinoline derivatives for treatments inhibiting the formation of lipid peroxides” (MITSUBISHI KASEI CORPORATION, priority 1985, dated 1986).
Like-named read-outs stand apart in the source and are kept apart here.

Experiments:
Mast cells = experiment: Histamine release from mast cells stimulated with compound 48/80 or ascarid protein; assay type: cell-based, male Wistar rats; details: compound 48/80 and protein from epidermis of ascarid as stimulants
Description: Histamine release can be experimentally investigated in vitro with use of mast cells derived from rat's abdominal cavity. Thus, after the mast cells are pre-incubated in the presence of an IgE antibody, e.g. IgE antibody prepared by sensitization of rabbit with a protein derived from the epidermis of ascarid, addition of a corresponding IgE antigen, e.g. the protein prepared from the epidermis of ascarid, induces the release of histamine from the mast cells. Such release of histamine can also be induced by addition of an artificial stimulant compound 48/80, ATP (adenosine triphosphate) to mast cells.
Mast cells were collected from the abdominal cavity of male Wistar rats of 400 - 450 g in body weight in a conventional manner. After pre-incubation of 5 x 10^4 cells in Krebs-Ringer buffer, pH 7.4, for 10 minutes, 0,1 µg/ml of the compound 48/80 was added. After incubation for an additional 10 minutes, the cells were removed by centrifugation at 3,000 rpm for 5 minutes. Thereafter, histamine in the supernatant was quantitatively measured according to Shore's method described in J. Phar. […] As a control, total amount of histamine contained in mast cell was measured. A ratio of the amount of histamine released after the treatment with the compound 48/80 as a stimulant to the total amount of histamine as the control was calculated according to the following equation : [formula]

isolated hepatocytes = experiment: Formation of lipid peroxide in isolated hepatocytes after addition of carbon tetrachloride; assay type: cell-based, rat; details: Concentration 10 µM, carbon tetrachloride 5 mM; for inhibition at 10 µM: Rattus norvegicus, Hepatocyte, 3 hours, read-out: Free MDA (3 hours) % Inhibition
Description: Lipid peroxide was produced in vitro in cell membranes by using hepatocytes isolated by means of collagenase.
The isolated hepatocytes were prepared by the method of collagenase perfusion from the liver of rat which was fed for one week with phenobarbital in drinking water. The isolated hepatocytes (1 x 10^6 cells/ml Hanks solution containing 1 % BSA and 10 mM HEPES, pH 7.4) were taken into a conical flask in which test compounds were placed. Then, the cells were incubated at 37°C and produced the lipid peroxide by the addition of carbon tetrachloride (5 mM).
The activity of the compounds shown in Table I and vitamin E to inhbit the formation of the lipid peroxide was measured. The amount of the lipid peroxide was determined in accordance with the method of Mihara et al. (Yakugaku Zasshi; Journal of the Pharmaceutical Society of Japan, Vol. 102, No. 7, 670-677 (1982)) and expressed in terms of inhibition rate (%) of the formation of lipid peroxide after the addition of carbon tetrachloride.

[1] = test system: rat polymorphonuclear leukocytes (PMN); experiment: Production of O2- by polymorphonuclear leukocytes stimulated with PMA (cytochrome C reduction); assay type: cell-based; details: Leukocyte, PMA 125 ng/ml; for inhibition at 3.3 µM: Conc. 3.3 µM; for inhibition at 10 µM: Conc. 10.0 µM; for inhibition at 33 µM: Conc. 33.0 µM
Description: In 20 hours after injection of 10 ml of 1 % casein into the abdominal cavity of a […], many polymorphonuclear leukocytes appear in the cavity. An activity of the polymorphonuclear leukocytes can be determined in an in vitro system. Briefly stated, addition of phorbol myristate acetate, PMA, as a stimulant into a test tube containing a buffer and the polymorphonuclear leukocytes induces the production of O2^- by the polymorphonuclear leukocytes. […] See Wei Hsueh et al., Nature, 290 (23), 710-713 (1981).
Thus, measurements were carried out using rat polymorphonuclear leukocytes (PMN) induced by 1 % casein and PMA (phorbol-12-myristate-13-acetate) as a stimulant. First, 1,830 µl of phosphate buffer, pH 7,4, 50 µl of cytochrome C (Cyt C) in BSA, 20 µl of a sample (compound) and 50 µl of PMN were stirred at 37°C. After adding 50 µl of PMA to a final concentration of 125 ng/ml, the change of Cyt C reduction was traced by an absorption at 550 nm. The number of PMN per tube was 2 x 10^6 cells.

[2] = test system: liver of the carbon tetrachloride-treated rat; experiment: Lipid peroxide in the liver of carbon tetrachloride-treated rat, oral administration; assay type: in vivo; details: 24 hours after CCl4
Description: The lipid peroxide in the liver of the rat treated with CC14 increases. Carbon tetrachloride of 25 % V/V in olive oil was administered orally to rats by the dose of 2 ml/kg. After 24 hours, the amount of the lipid peroxide in the liver of the carbon tetrachloride-treated rat was increased to approx. 6 times higher than untreated rat. The amount of the lipid peroxide was determined by the method of Mihara et al. as in Example 3 and was expressed in terms of MDA amount (nmol) in 1 g of liver. The activity of compound No. 1 and vitamin E to inhibit the formation of the lipid peroxide was measured. Compound No. 1 was orally administered to the carbon tetrachloride-treated rat in the form of suspension in the surfactant "Tween 80" by the amount of 25, 50 or 100 mg/kg/day nine days before the treatment of carbon tetrachloride.

rat liver microsome = experiment: Formation of lipid peroxide in vitro in rat liver microsome (TBA method); assay type: biochemical
Description: Lipid peroxide was produced in vitro by using rat liver microsome. The microsome was prepared in a usual method from rat starved for 24 hours, and the final concentration thereof was adjusted to 15 - 18 mg proteins/ml.
To the thus prepared microsome was added Fe(N03)3, ADP (adenosine diphosphate), NADPH (nicotinamide adenine dinucleotide phosphate), glucose 6-phosphate and glucose 6-phosphate dehydrogenase so that the final concentrations of these additives were 200 uM, 7 mM, 7.5 mM, 20 mM and 2.0 U.I., respectively.
The resultant mixture was incubated at 37°C to produce the lipid peroxide. The activity of compound No. 1 and vitamin E to inhibit the formation of the lipid peroxide was measured. The quantity of the lipid peroxide was determined in accordance with TBA method (thiobarbiturate method, "Biochemical Medicine", Vol. 15, p. 212 (1976)) and expressed in terms of MDA (malon dialdehyde) amount (nmol) in 1 mg of protein.

[3] = test system: patients with chronic active hepatitis; details: daily dosages 600 to 1600 mg, 13 patients; particularly at 1200-1600 mg/day; cited from earlier work
[4] = Plasma concentration (AUC) after oral administration to beagle dogs, after fast or after diet; assay type: in vivo; details: male, dog, 200 mg/kg, 30 minutes after diet, dogs No. 1-5 and mean in last row, read-out: AUC of tritoqualine concentration in blood for 5 hours
Description: Tritoqualine was orally administered to male beagle dogs, […], body weight of 9.5 - 12 kg, Hazleton, after fast or 30 minutes after diet in a dose of 200 mg/kg.
Tritoqualine had been subjected to micronization by a jet mill PJM-100NP, NIHON NEWMATIC KOGYO KK, JAPAN (10 % or more of 3 microns or less, 80 % of 3-15 microns and 10 % or less of 15 microns or more; average of 7 microns) or a screen of 100 mesh under. The obtained particles were suspended in aqueous 1 % Tween 80 solution before use. […]
Before the administration, and 0.5, 1, 2, 3 and 5 hours after the administration, 1 ml of blood was taken out of the vein of front leg, placed into a BHA-coated centrifugal tube "VENOJECT" containing heparin, TERMO INC., and centrifuged. Hundred microliters of the thus obtained plasma was placed into a small glass test tube, which had been coated with 1 microgram of BHA. Into the tube were added 190 microliters of noscapine (100 micrograms in ml of acetonitrile) as an internal standard and 10 microliters of acetonitrile. After blending for one minute, the mixture was centrifuged at 3,000 rpm for 5 minutes. The resulting supernatant was subjected to HPLC under the conditions described below.
The quantitative measurements of tritoqualine in the plasma were carried out according to the internal standard method. The area under curve (AUC) was calculated by the trapezoidal rule. […]

[5] = test system: patients suffering from chronic hepatitis; experiment: Clinical investigation in chronic hepatitis, oral administration for 8 weeks after every diet; assay type: in vivo; details: for improvement of liver functions (patients): 8 weeks
Description: To patients suffering from chronic hepatitis tritoqualine was administered orally for 8 weeks continuously in a daily dose of 150 or 300 mg after every diet.
Glutamate oxaloacetate transaminase (GOT) and glutamate pyruvate transaminase (GPT) were measured just before the first administration, and 4 and 8 weeks after the first administration.
During the above investigations, there were few cases where slight side effects such as dizziness and nausea, which were suspected to have a relation with the administered drug, appeared : in one case among 65 cases administered in a dose of 150 mg, i.e. 1.5 %; and 8 cases among 137 cases in a dose of 300 mg, i.e. 5.8 %.
When tritoqualine was administered in a dose of 600 mg in the same manner as described above, side effects appeared in 24 cases among 164 cases, i.e. 14.6 %.

[6] = 10 µM, Incubation Period 10 min
[7] = 100 µM, Incubation Period 5 min
[8] = 100 µM, Incubation Period 10 min

Compound: CCOc1c(N)c2c(c(OCC)c1OCC)C(C1c3c(cc4c(c3OC)OCO4)CCN1C)OC2=O (stereo not drawn) [Compound No. 1, 7-amino-4,5,6-triethoxy-3-(5,6,7,8-tetrahydro-4-methoxy-6-methyl-1,3-dioxolo(4,5-g)isoquinolin-5-yl)phthalide]
- inhibiting activity to the histamine release (Mast cells): strong inhibiting activity
- inhibition at 10 µM (isolated hepatocytes): 77.3%
- inhibition at 3.3 µM [1]: 15.4%
- inhibition at 10 µM [1]: 53.9%
- inhibition at 33 µM [1]: 58.8%
- IC50 [1]: 15.9 µM
- MDA Amount Produced ([2]; 25 mg/kg oral): 333.0 ± 54.3 nmol/g of liver
- MDA Amount Produced ([2]; 50 mg/kg oral): 328.5 ± 50.8 nmol/g of liver
- MDA Amount Produced ([2]; 100 mg/kg oral): 171.0 ± 23.6 nmol/g of liver
- MDA Amount Produced (rat liver microsome; 3.3 µM, Incubation Period 5 min): 1.80 ± 0.12 nmol/mg of protein
- MDA Amount Produced (rat liver microsome; 3.3 µM, Incubation Period 10 min): 2.25 ± 0.21 nmol/mg of protein
- MDA Amount Produced (rat liver microsome; 10 µM, Incubation Period 5 min): 1.71 ± 0.12 nmol/mg of protein
- MDA Amount Produced (rat liver microsome; [6]): 1.80 ± 0.06 nmol/mg of protein
- MDA Amount Produced (rat liver microsome; 33 µM, Incubation Period 5 min): 1.50 ± 0.05 nmol/mg of protein
- MDA Amount Produced (rat liver microsome; 33 µM, Incubation Period 10 min): 1.62 ± 0.02 nmol/mg of protein
- MDA Amount Produced (rat liver microsome; [7]): 1.37 ± 0.02 nmol/mg of protein
- MDA Amount Produced (rat liver microsome; [8]): 1.37 ± 0.05 nmol/mg of protein

Compound: CCOc1c(N)c2c(c(OCC)c1OCC)C(C1c3c(cc4c(c3OC)OCO4)CCN1CC)OC2=O (stereo not drawn) [compound 5, 2-ethyl-6,7-methylenedioxy-8-methoxy-1-(4,5,6-triethxy-7-amino-3-phthalidyl)-1,2,3,4-tetrahydroisoquinoline]
- inhibition at 10 µM (isolated hepatocytes): 68.6%
- inhibition at 3.3 µM [1]: 49.2%
- inhibition at 10 µM [1]: 65.8%
- inhibition at 33 µM [1]: 60.3%
- IC50 [1]: 1.8 µM

Compound: CCOc1c(N)c2c(c(OCC)c1OCC)C(C1c3c(cc(OC)c4c3OCO4)CCN1C)OC2=O (stereo not drawn) [compound 3]
- inhibiting activity to the histamine release (Mast cells): strong inhibiting activity
- inhibition at 10 µM (isolated hepatocytes): 76.9%
- inhibition at 3.3 µM [1]: 34.9%
- inhibition at 10 µM [1]: 59.9%
- inhibition at 33 µM [1]: 66.2%
- IC50 [1]: 7.2 µM

Compound: CCOc1c(N)c2c(c(OCC)c1OCC)C(C1c3c(cc4c(c3OC)OCO4)CCN1C)OC2=O (stereo not drawn) [tritoqualine, 7-amino-4,5,6-triethoxy-3-(5,6,7,8-tetrahydro-4-methoxy-6-methyl-1,3-dioxolo(4,5-g)isoquinolin-5-yl)phthalide]
- fibrosis with cellular infiltration on biopsied liver specimens [3]: reduction of fibrosis
- liver functions [3]: marked improvement
- AUC ([4]; 100 mesh under 200 mg/kg oral): 187 ng·h/mL
- AUC ([4]; Micronisation 200 mg/kg oral): 674 ng·h/mL
- improvement of liver functions (patients) ([5]; daily dose 150 mg oral, 27 among 62 patients): 44.3%
- improvement of liver functions (patients) ([5]; daily dose 300 mg oral, 79 among 135 patients): 61.2%
- side effects such as dizziness and nausea (cases) ([5]; dose of 150 mg, one case among 65 cases): 1.5%
- side effects such as dizziness and nausea (cases) ([5]; dose of 300 mg, 8 cases among 137 cases): 5.8%
- side effects (cases) ([5]; dose of 600 mg, 24 cases among 164 cases): 14.6%

Compound: COc1ccc2c(c1OC)C(=O)OC2C1c2c(cc3c(c2OC)OCO3)CCN1C (stereo not drawn) [compound 2]
- inhibition at 10 µM (isolated hepatocytes): 42.4%

Compound: CCOc1c(OCC)c2c(c([N+](=O)[O-])c1OCC)C(=O)OC2C1c2c(cc3c(c2OC)OCO3)CCN1C (stereo not drawn) [compound 4]
- inhibition at 10 µM (isolated hepatocytes): 28.6%

Compound: CCOc1c(N)c2c(c(OCC)c1OCC)C(C1c3cc(OC)c(OC)cc3CCN1C)OC2=O (stereo not drawn) [compound 6]
- inhibition at 10 µM (isolated hepatocytes): 47.6%
- inhibition at 3.3 µM [1]: 0.9%
- inhibition at 10 µM [1]: 14%
- inhibition at 33 µM [1]: 41.1%
- IC50 [1]: 45.1 µM

Compound: Vitamin E [reference compound]
- Free MDA (3 hours) % Inhibition (isolated hepatocytes): 13%
- MDA Amount Produced ([2]; 50 mg/kg oral): 104.0 ± 18.4 nmol/g of liver
- MDA Amount Produced (rat liver microsome; [6]): 2.37 ± 0.21 nmol/mg of protein
- MDA Amount Produced (rat liver microsome; [7]): 2.06 ± 0.001 nmol/mg of protein
- MDA Amount Produced (rat liver microsome; [8]): 2.62 ± 0.07 nmol/mg of protein
- MDA Amount Produced (rat liver microsome; 1000 µM, Incubation Period 5 min): 2.06 ± 0.016 nmol/mg of protein
- MDA Amount Produced (rat liver microsome; 1000 µM, Incubation Period 10 min): 2.29 ± 0.14 nmol/mg of protein
